Key:
beta-adrenergic = conditions: cited from earlier work
mice [1] = assay: side effects in mice at 3 mg/kg/day orally; type: in vivo
Method: (§1) A control and a drug concentration (approximately 3 mg/kg body weight/day) were provided orally via drinking water. Water containing drugs were prepared daily. Water intake were monitored daily to insure proper dosage and hydration levels. A commercial food pellet were provided ad libitum.
Ohnishi tested an in vivo efficacy of these drugs using mice infected by p. Falciparum.

p. Falciparum = assay: in vivo efficacy in mice infected by p. Falciparum (FIG. 3); conditions: 3 mg/kg/day orally
mice [2] = conditions: oral administration; cited from earlier work
man = conditions: adults; mixture of l-form and d-form; cited from earlier work
sickle red cells = conditions: studies on sickle red cells; cited from earlier work
p. Vinckei = assay: in vivo efficacy in mice infected with p. Vinckei (FIG. 4); conditions: oral, 3 mg/kg body weight
Method: Mice: Four to eight-week-old BALB/C male and female mice from a breeding colony were used.
Parasite: Stabilates of p. Vinchei TCC 30091) and p. Falciparum (FCR-3 knobless) were used.
In vivo method: The tail vein was nicked and a blood droplet was smeared.
The smears were stained with Giemsa, infected erythrocytes (which contain trophozoite and schizont stage parasites) were counted and percent parasitemia estimated.
Approximately 10^5 p. Vinchei parasites were injected intraperitoneally (I.P.) into a donor mouse and at the time of ascending parasitemia, the infected mouse was exsanguinated and red blood cells are prepared for in vivo experimentation.
as §1
To each mouse, 10^6 parasitized red blood cells were injected I.P., and daily blood samples were collected from the tail vein to monitor the levels of parasitemia.
Five mice were used for each group tested.
During the experimentation, we monitored both the percent parasitemia and percent survival rate of each experimental group.
Using p. Vinckei and a mice model, Ohnishi has also tested the efficacy of W-7.

| SMILES | beta-adrenergic blocker activity of the form (beta-adrenergic) | side effect (mice [1]) | inhibition of the growth of parasites in mice (p. Falciparum) | acute LD50 (mice [2]) [mg/kg] | effect on red cell metabolism and cell sickling (sickle red cells) | other results |
| --- | --- | --- | --- | --- | --- | --- |
| CC(C)NC[C@H](O)COc1cccc2ccccc12 [l-propranolol] | active beta-adrenergic blocker | no side effect was observed | effectively inhibited the growth of parasites in mice |  |  |  |
| C=CCc1ccccc1OC[C@@H](O)CNC(C)C [l-alprenolol] |  |  |  | 278 |  |  |
| CC(C)NCC(O)COc1cccc2ccccc12 (stereo not drawn) [propranolol] |  |  |  |  | altered the red cell metabolism and thus affected the cell sickling | usual effective dose in man as an anti-hypertensive drug (daily) (man): 160-480 mg daily; usual effective dose in man as an anti-hypertensive drug (per body weight) (man): 3-8 mg/kg body weight/day |
| NCCCCCCNS(=O)(=O)c1cccc2c(Cl)cccc12 [W-7] |  |  |  | 75 | altered the red cell metabolism and thus affected the cell sickling | life span after infection (p. Vinckei): extended their life span after infection; suppression of the growth of parasites (p. Vinckei): suppressed the growth of parasites |
| CC(C)NC[C@@H](O)COc1cccc2ccccc12 [d-propranolol] | inactive beta-adrenergic blocker | no side effect was observed | effectively inhibited the growth of parasites in mice |  |  |  |
| C=CCc1ccccc1OCC(O)CNC(C)C (stereo not drawn) [alprenolol] |  |  |  |  | altered the red cell metabolism and thus affected the cell sickling |  |

Source: patent US4681899A, “Method of preventing the growth of malaria parasites in erythrocytes” (priority 1985, dated 1987)
